Reference: PubChem BioAssay AID330 (DTP/NCI, 2004)
Several values for one entry are separate records, joined by “and”; a condition that tells them apart may be missing. Identical values can stand only once. Inconclusive results and toxic doses are left out. Rule for the calls: active = survival T/C of 150% or more; inactive = T/C below 125% in these data.

Test system: P388 leukemia ip, CD2F1 mice, survival T/C
Experiment: NCI In Vivo Anticancer Drug Screen. Data for tumor model P388 Leukemia (intraperitoneal) in CD2F1 (CDF1) mice
Details: endpoint: median survival time, higher = longer survival
Method in brief: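 Mice carrying the transplanted tumor received test compound or vehicle. Survival was recorded in each group, and the value is the treated-group measurement divided by that of the vehicle-treated control group.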

[1] = dose: 60.0 mg/kg/injection, schedule: Q01DX005 (ip), vehicle: saline with Tween-80
[2] = dose: 120.0 mg/kg/injection, schedule: Q01DX005 (ip), vehicle: saline with Tween-80
[3] = dose: 240.0 mg/kg/injection, schedule: Q01DX005 (ip), vehicle: saline with Tween-80
[4] = dose: 50.0 mg/kg/injection, schedule: Q01DX005 (ip), vehicle: saline with Tween-80
[5] = dose: 100.0 mg/kg/injection, schedule: Q01DX005 (ip), vehicle: saline with Tween-80
[6] = dose: 200.0 mg/kg/injection, schedule: Q01DX005 (ip), vehicle: saline with Tween-80
[7] = dose: 50.0 mg/kg/injection, schedule: Q01DX001 (ip), vehicle: Klucel (hydroxypropylcellulose) (HPC)
[8] = dose: 100.0 mg/kg/injection, schedule: Q01DX001 (ip), vehicle: Klucel (hydroxypropylcellulose) (HPC)
[9] = dose: 200.0 mg/kg/injection, schedule: Q01DX001 (ip), vehicle: Klucel (hydroxypropylcellulose) (HPC)
[10] = dose: 50.0 mg/kg/injection, schedule: Q01DX009 (ip), vehicle: Klucel (hydroxypropylcellulose) (HPC)
[11] = dose: 100.0 mg/kg/injection, schedule: Q01DX009 (ip), vehicle: Klucel (hydroxypropylcellulose) (HPC)
[12] = dose: 200.0 mg/kg/injection, schedule: Q01DX009 (ip), vehicle: Klucel (hydroxypropylcellulose) (HPC)
[13] = dose: 100.0 mg/kg/injection, schedule: Q01DX009 (ip), vehicle: saline with Tween-80
[14] = dose: 12.5 mg/kg/injection, schedule: Q01DX009 (ip), vehicle: saline with Tween-80
[15] = dose: 25.0 mg/kg/injection, schedule: Q01DX009 (ip), vehicle: saline with Tween-80
[16] = dose: 50.0 mg/kg/injection, schedule: Q01DX009 (ip), vehicle: saline with Tween-80

Measured: T/C

CNC(=O)Oc1ccc(OC2OC(CO)C(O)C(O)C2O)c2ccccc12 (configuration not stated)
inactive: dose: 100.0 mg/kg/injection, schedule: Q01DX001 (ip), vehicle: saline 101 % of control | dose: 200.0 mg/kg/injection, schedule: Q01DX001 (ip), vehicle: saline 104 % of control | dose: 400.0 mg/kg/injection, schedule: Q01DX001 (ip), vehicle: saline 103 % of control

CC1=CC2=C(C(N)=O)C(=O)OC2(C)C(c2ccccc2)C1 (configuration not stated)
inactive: [1] 101 % of control | [2] 101 % of control | [3] 100 % of control

C=CCSc1nc2ccc(NCn3c(=S)sc4ccccc43)cc2s1
inactive: dose: 100.0 mg/kg/injection, schedule: Q04DX003 (ip), vehicle: Klucel (hydroxypropylcellulose) (HPC) 89 % of control | dose: 200.0 mg/kg/injection, schedule: Q04DX003 (ip), vehicle: Klucel (hydroxypropylcellulose) (HPC) 89 % of control | dose: 400.0 mg/kg/injection, schedule: Q04DX003 (ip), vehicle: Klucel (hydroxypropylcellulose) (HPC) 89 % of control

Nc1ccc2ccccc2c1-c1cccc2ccccc12
inactive: [4] 96 % of control | [5] 96 % of control | dose: 100.0 mg/kg/injection, schedule: Q04DX002 (ip), vehicle: saline with Tween-80 102 % of control | [6] 102 % of control | dose: 200.0 mg/kg/injection, schedule: Q04DX002 (ip), vehicle: saline with Tween-80 102 % of control | dose: 400.0 mg/kg/injection, schedule: Q04DX002 (ip), vehicle: saline with Tween-80 92 % of control

C/C(=N\Nc1ccc2ccccc2n1)c1ccccn1
inactive: dose: 12.5 mg/kg/injection, schedule: Q01DX005 (ip), vehicle: Klucel (hydroxypropylcellulose) (HPC) 107 % of control | dose: 25.0 mg/kg/injection, schedule: Q01DX005 (ip), vehicle: Klucel (hydroxypropylcellulose) (HPC) 106 % of control | dose: 50.0 mg/kg/injection, schedule: Q01DX005 (ip), vehicle: Klucel (hydroxypropylcellulose) (HPC) 114 % of control and 116 % of control

CC(C)CNC(=O)C(=O)NCC(C)C
inactive: dose: 25.0 mg/kg/injection, schedule: Q01DX001 (ip), vehicle: Klucel (hydroxypropylcellulose) (HPC) 98 % of control | [7] 101 % of control | [8] 101 % of control

CCc1[nH]c(=O)nc(N)c1-c1ccc(N2CCCCC2)c([N+](=O)[O-])c1
inactive: [1] 93 % of control | [2] 96 % of control | [3] 97 % of control

CC(=O)/C(C(=N)c1nc(C)c(C(=O)c2ccccc2)c(C(N)=O)n1)=C(/O)c1ccccc1
inactive: [8] 90 % of control | [9] 88 % of control | dose: 400.0 mg/kg/injection, schedule: Q01DX001 (ip), vehicle: Klucel (hydroxypropylcellulose) (HPC) 89 % of control

COc1cc(Oc2c(C)c(Cl)c(OC)c(Cl)c2OC)c2c(c1Cl)COC2=O
inactive: dose: 7.5 mg/kg/injection, schedule: Q01DX005 (ip), vehicle: Klucel (hydroxypropylcellulose) (HPC) 97 % of control | dose: 15.0 mg/kg/injection, schedule: Q01DX005 (ip), vehicle: Klucel (hydroxypropylcellulose) (HPC) 97 % of control | dose: 30.0 mg/kg/injection, schedule: Q01DX005 (ip), vehicle: Klucel (hydroxypropylcellulose) (HPC) 100 % of control

CCOC(=O)C(O)(CC)CCC(C)C (configuration not stated)
inactive: dose: 50.0 mg/kg/injection, schedule: Q04DX003 (ip), vehicle: saline with Tween-80 100 % of control | dose: 100.0 mg/kg/injection, schedule: Q04DX003 (ip), vehicle: saline with Tween-80 100 % of control | dose: 200.0 mg/kg/injection, schedule: Q04DX003 (ip), vehicle: saline with Tween-80 100 % of control

S=C(NCCCN1CCN(CCCNC(=S)Nc2c3ccccc3nc3ccccc23)CC1)Nc1c2ccccc2nc2ccccc12
inactive: dose: 6.25 mg/kg/injection, schedule: Q01DX005 (ip), vehicle: saline with Tween-80 98 % of control | dose: 12.5 mg/kg/injection, schedule: Q01DX005 (ip), vehicle: saline with Tween-80 100 % of control and 110 % of control | dose: 25.0 mg/kg/injection, schedule: Q01DX005 (ip), vehicle: saline with Tween-80 114 % of control and 116 % of control | [4] 119 % of control and 120 % of control

C=CC(=O)NC1(c2ccccc2)CN2CCC1CC2 (configuration not stated)
inactive: [10] 96 % of control

CCCCCCCCCCCCOc1ccccc1C(=O)O
inactive: dose: 6.25 mg/kg/injection, schedule: Q04DX003 (ip), vehicle: saline sonified 100 % of control | dose: 12.5 mg/kg/injection, schedule: Q04DX003 (ip), vehicle: saline sonified 100 % of control | dose: 25.0 mg/kg/injection, schedule: Q04DX003 (ip), vehicle: saline sonified 100 % of control

O=C(O)c1ccccc1Cc1cccc2ccccc12
inactive: dose: 100.0 mg/kg/injection, schedule: Q04DX002 (ip), vehicle: Klucel (hydroxypropylcellulose) (HPC) 91 % of control | dose: 200.0 mg/kg/injection, schedule: Q04DX002 (ip), vehicle: Klucel (hydroxypropylcellulose) (HPC) 96 % of control | dose: 400.0 mg/kg/injection, schedule: Q04DX002 (ip), vehicle: Klucel (hydroxypropylcellulose) (HPC) 99 % of control

CCCCCCCC(=O)Nc1ncc([N+](=O)[O-])s1
inactive: [10] 106 % of control | [11] 106 % of control | [12] 113 % of control

CCCCCCCCC1SC1CCCCCCCC(=O)OCCOCCOCC (configuration not stated)
inactive: [13] 104 % of control | dose: 200.0 mg/kg/injection, schedule: Q01DX009 (ip), vehicle: saline with Tween-80 104 % of control | dose: 400.0 mg/kg/injection, schedule: Q01DX009 (ip), vehicle: saline with Tween-80 100 % of control

CC12CCC(=O)C=C1CCCC2=O (configuration not stated)
inactive: dose: 50.0 mg/kg/injection, schedule: Q04DX003 (ip), vehicle: saline 95 % of control | dose: 100.0 mg/kg/injection, schedule: Q04DX003 (ip), vehicle: saline 100 % of control | dose: 200.0 mg/kg/injection, schedule: Q04DX003 (ip), vehicle: saline 90 % of control

CCS(=O)(=O)CCN1C(=O)CN=C(c2ccccc2F)c2cc(Cl)ccc21
inactive: [14] 102 % of control | [15] 104 % of control | [16] 103 % of control | [13] 110 % of control

COc1ccc2c(=O)c(Cc3c[nH]c4ccccc34)coc2c1
inactive: dose: 7.5 mg/kg/injection, schedule: Q01DX005 (ip), vehicle: saline with Tween-80 100 % of control | dose: 15.0 mg/kg/injection, schedule: Q01DX005 (ip), vehicle: saline with Tween-80 93 % of control | dose: 30.0 mg/kg/injection, schedule: Q01DX005 (ip), vehicle: saline with Tween-80 86 % of control

CCCCOP(O)(=S)OCCCC.[Fe]
inactive: [7] 102 % of control | [8] 102 % of control | [9] 101 % of control

CN1CCC(c2ccccc2)C(O)C1 (configuration not stated)
inactive: [1] 106 % of control | [2] 105 % of control | [3] 103 % of control

CCN(CC)Cc1cc(N=Nc2ccc(N(C)C)cc2)ccc1O
inactive: dose: 100.0 mg/kg/injection, schedule: Q01DX001 (ip), vehicle: saline with Tween-80 88 % of control | dose: 200.0 mg/kg/injection, schedule: Q01DX001 (ip), vehicle: saline with Tween-80 88 % of control

CC(=O)CC(c1ccc(Cl)cc1)C(C#N)c1ccccc1 (configuration not stated)
inactive: [10] 89 % of control | [11] 91 % of control | [12] 86 % of control

O=C(CCSC1=NCCCN1)c1ccc(F)cc1
inactive: [14] 111 % of control | [15] 118 % of control | [16] 118 % of control and 120 % of control

CCCCN1CC(=O)N2CCCC(c3ccccc3)N2C(=O)C1 (configuration not stated)
inactive: [4] 103 % of control | [5] 105 % of control | [6] 103 % of control
